Results reported in patent publication US10730872B2, “Pesticidally active heterocyclic derivatives with sulphur containing sustitutents” (SYNGENTA PARTICIPATIONS AG, priority 2015, dated 2020).

Columns and labels:
Assay type in all cases: in vivo
Diabrotica balteata = Diabrotica balteata (Corn Root Worm); conditions: 96 h, application rate of 200 ppm, sprayed maize sprouts, L2 larvae, 4 days after infestation, read-out: effect in at least one of the two categories (mortality or growth inhibition)
Description: Maize sprouts placed onto an agar layer in 24-well microtiter plates were treated with aqueous test solutions prepared from 10,000 ppm DMSO stock solutions by spraying. After drying, the plates were infested with L2 larvae (6 to 10 per well). The samples were assessed for mortality and growth inhibition in comparison to untreated samples 4 days after infestation.

Plutella xylostella = Plutella xylostella (Diamond Back Moth); conditions: 120 h, application rate of 200 ppm, artificial diet, L2 larvae, 5 days after infestation, read-out: effect in at least one of the two categories (mortality or growth inhibition)
Description: 24-well microtiter plates with artificial diet were treated with aqueous test solutions prepared from 10,000 ppm DMSO stock solutions by pipetting. After drying, the plates were infested with L2 larvae (10 to 15 per well). The samples were assessed for mortality and growth inhibition in comparison to untreated samples 5 days after infestation.

Myzus persicae [1] = experiment: Myzus persicae (Green Peach Aphid): Feeding/Contact Activity; conditions: foliar, 144 h, application rate of 200 ppm, sprayed sunflower leaf discs, aphid population of mixed ages, 6 days after infestation
Description: Sunflower leaf discs were placed onto agar in a 24-well microtiter plate and sprayed with aqueous test solutions prepared from 10,000 ppm DMSO stock solutions. After drying, the leaf discs were infested with an aphid population of mixed ages. The samples were assessed for mortality 6 days after infestation.

Aedes aegypti = experiment: Aedes Aegypti (Yellow Fever Mosquito); conditions: 200 ppm in ethanol, dry deposit in 12 well plates, adult females, after 48 h and/or 24 h
Description: Test solutions, at an application rate of 200 ppm in ethanol, were applied to 12 well tissue culture plates. Once the deposits were dry, five, two to five day old adult female Aedes aegypti were added to each well, and sustained with a 10% sucrose solution in a cotton wool plug. Assessment of knockdown was made one hour after introduction, and mortality was assessed at 24 and 48 hours after introduction.

Euschistus heros = Euschistus heros (Neotropical Brown Stink Bug); conditions: 120 h, application rate of 200 ppm, sprayed soybean leaves, N2 nymphs, 5 days after infestation, read-out: effect in at least one of the two categories (mortality or growth inhibition)
Description: Soybean leaves on agar in 24-well microtiter plates were sprayed with aqueous test solutions prepared from 10,000 ppm DMSO stock solutions. After drying the leaves were infested with N2 nymphs. The samples were assessed for mortality and growth inhibition in comparison to untreated samples 5 days after infestation.

Bemisia tabaci = Bemisia tabaci (Cotton White Fly): Feeding/Contact Activity; conditions: foliar, 144 h, application rate of 200 ppm, sprayed cotton leaf discs, adult white flies, 6 days after incubation
Description: Cotton leaf discs were placed on agar in 24-well microtiter plates and sprayed with aqueous test solutions prepared from 10,000 ppm DMSO stock solutions. After drying the leaf discs were infested with adult white flies. The samples were checked for mortality 6 days after incubation.

Myzus persicae [2] = experiment: Myzus persicae (Green Peach Aphid). Systemic Activity; conditions: 144 h, test rate of 24 ppm, roots of infested pea seedlings in test solution, 6 days
Description: Roots of pea seedlings infested with an aphid population of mixed ages were placed directly into aqueous test solutions prepared from 10,000 DMSO stock solutions. The samples were assessed for mortality 6 days after placing seedlings into test solutions.

Spodoptera littoralis [3] = experiment: Spodoptera littoralis (Egyptian Cotton Leaf Worm), sprayed cotton leaf discs; conditions: foliar, 72 h, application rate of 200 ppm, L1 larvae, 3 days after infestation
Method in brief: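 Cotton leaf discs on agar sprayed with aqueous dilutions of 10,000 ppm DMSO stocks, dried, then infested with five L1 larvae. Mortality, anti-feeding and growth inhibition scored against untreated discs 3 days after infestation. Control recorded when any one category exceeds the untreated sample.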

Spodoptera littoralis [4] = experiment: Spodoptera littoralis (Egyptian Cotton Leaf Worm), uptake by lettuce roots from agar; conditions: 144 h, test rate of 12.5 ppm, mixed with agar, absorbed by lettuce roots, Spodoptera eggs, 6 days after infestation, read-out: effect in at least one of the three categories (mortality, anti-feeding, or growth inhibition)
Method in brief: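 Compound from 10,000 ppm DMSO stock mixed into agar; lettuce seeds grew 7 days, taking compound up via roots into the lid plate. Cut leaves infested with Spodoptera eggs; mortality, anti-feedant effect and growth inhibition scored against untreated samples 6 days after infestation.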

[5] = test system: Frankliniella occidentalis; experiment: Frankliniella occidentalis (Western Flower Thrips): Feeding/Contact Activity; conditions: foliar, 168 h, application rate of 200 ppm, sprayed sunflower leaf discs, population of mixed ages, 7 days after infestation
Description: Sunflower leaf discs were placed on agar in 24-well microtiter plates and sprayed with aqueous test solutions prepared from 10,000 DMSO stock solutions. After drying the leaf discs were infested with a Frankliniella population of mixed ages. The samples were assessed for mortality 7 days after infestation.

Tetranychus urticae = Tetranychus urticae (Two-Spotted Spider Mite): Feeding/Contact Activity; conditions: foliar, 192 h, application rate of 200 ppm, sprayed bean leaf discs, mixed population (mobile stages), 8 days after infestation
Description: Bean leaf discs on agar in 24-well microtiter plates were sprayed with aqueous test solutions prepared from 10,000 ppm DMSO stock solutions. After drying the leaf discs were infested with a mite population of mixed ages. The samples were assessed for mortality on mixed population (mobile stages) 8 days after infestation.

CCn1c(C(F)(F)F)cc2nc(-c3nc(N)ccc3S(=O)(=O)CC)n(C)c2c1=O [Compound A6, 2-(6-amino-3-ethylsulfonyl-2-pyridyl)-5-ethyl-3-methyl-6-(trifluoromethyl)imidazo[4,5-c]pyridin-4-one]
≥ 80%: effect mortality or growth inhibition at 200 ppm (Diabrotica balteata) | percent effect (mortality or growth inhibition) at 200 ppm (Plutella xylostella) | mortality at 200 ppm (Myzus persicae [1]) | pest or weed control at 200 ppm (Aedes aegypti) | percent effect (mortality or growth inhibition) at 200 ppm (Euschistus heros) | mortality at 200 ppm (Bemisia tabaci) | mortality at 24 ppm (Myzus persicae [2]) | percent control (mortality, anti-feeding effect or growth inhibition) at 200 ppm (Spodoptera littoralis [3]) | percent effect (mortality, anti-feeding or growth inhibition) at 12.5 ppm (Spodoptera littoralis [4])

CCS(=O)(=O)c1cc(C2CC2)c(N)nc1-c1nc2cc(C(F)(F)F)n(C3CC3)c(=O)c2n1C [Compound A48, 2-(6-amino-5-cyclopropyl-3-ethylsulfonyl-2-pyridyl)-5-cyclopropyl-3-methyl-6-(trifluoromethyl)imidazo[4,5-c]pyridin-4-one]
≥ 80%: effect mortality or growth inhibition at 200 ppm (Diabrotica balteata) | mortality at 200 ppm [5] | percent effect (mortality or growth inhibition) at 200 ppm (Plutella xylostella) | mortality at 200 ppm (Myzus persicae [1]) | mortality at 200 ppm (Tetranychus urticae) | percent effect (mortality or growth inhibition) at 200 ppm (Euschistus heros) | mortality at 200 ppm (Bemisia tabaci) | mortality at 24 ppm (Myzus persicae [2]) | percent control (mortality, anti-feeding effect or growth inhibition) at 200 ppm (Spodoptera littoralis [3])

CCn1c(C(F)(F)F)cc2nc(-c3nc(N(C)C(=O)C4CC4)ccc3S(=O)(=O)CC)n(C)c2c1=O [Compound A10, N-[6-[5-ethyl-3-methyl-4-oxo-6-(trifluoromethyl)imidazo[4,5-c]pyridin-2-yl]-5-ethylsulfonyl-2-pyridyl]-N-methyl-cyclopropanecarboxamide]
≥ 80%: effect mortality or growth inhibition at 200 ppm (Diabrotica balteata) | mortality at 200 ppm [5] | percent effect (mortality or growth inhibition) at 200 ppm (Plutella xylostella) | mortality at 200 ppm (Myzus persicae [1]) | percent effect (mortality or growth inhibition) at 200 ppm (Euschistus heros) | mortality at 200 ppm (Bemisia tabaci) | mortality at 24 ppm (Myzus persicae [2]) | percent control (mortality, anti-feeding effect or growth inhibition) at 200 ppm (Spodoptera littoralis [3]) | percent effect (mortality, anti-feeding or growth inhibition) at 12.5 ppm (Spodoptera littoralis [4])

CCS(=O)(=O)c1ccc(NC2CC2)nc1-c1nc2cc(C(F)(F)F)n(C)c(=O)c2n1C [Compound A2, 2-[6-(cyclopropylamino)-3-ethylsulfonyl-2-pyridyl]-3,5-dimethyl-6-(trifluoromethyl)imidazo[4,5-c]pyridin-4-one]
≥ 80%: effect mortality or growth inhibition at 200 ppm (Diabrotica balteata) | percent effect (mortality or growth inhibition) at 200 ppm (Plutella xylostella) | mortality at 200 ppm (Myzus persicae [1]) | mortality at 200 ppm (Tetranychus urticae) | pest or weed control at 200 ppm (Aedes aegypti) | percent effect (mortality or growth inhibition) at 200 ppm (Euschistus heros) | mortality at 24 ppm (Myzus persicae [2]) | percent control (mortality, anti-feeding effect or growth inhibition) at 200 ppm (Spodoptera littoralis [3]) | percent effect (mortality, anti-feeding or growth inhibition) at 12.5 ppm (Spodoptera littoralis [4])

CCn1c(C(F)(F)F)cc2nc(-c3ncc(N(C)C4CC4)cc3S(=O)(=O)CC)n(C)c2c1=O [Compound A11, 2-[5-[cyclopropyl(methyl)amino]-3-ethylsulfonyl-2-pyridyl]-5-ethyl-3-methyl-6-(trifluoromethyl)imidazo[4,5-c]pyridin-4-one]
≥ 80%: effect mortality or growth inhibition at 200 ppm (Diabrotica balteata) | mortality at 200 ppm [5] | percent effect (mortality or growth inhibition) at 200 ppm (Plutella xylostella) | mortality at 200 ppm (Myzus persicae [1]) | pest or weed control at 200 ppm (Aedes aegypti) | percent effect (mortality or growth inhibition) at 200 ppm (Euschistus heros) | percent control (mortality, anti-feeding effect or growth inhibition) at 200 ppm (Spodoptera littoralis [3]) | percent effect (mortality, anti-feeding or growth inhibition) at 12.5 ppm (Spodoptera littoralis [4])

CCn1c(C(F)(F)F)cc2nc(-c3nc(NC4CC4)ccc3S(=O)(=O)CC)n(C)c2c1=O [Compound A30, 2-[6-(cyclopropylamino)-3-ethylsulfonyl-2-pyridyl]-5-ethyl-3-methyl-6-(trifluoromethyl)imidazo[4,5-c]pyridin-4-one]
≥ 80%: effect mortality or growth inhibition at 200 ppm (Diabrotica balteata) | percent effect (mortality or growth inhibition) at 200 ppm (Plutella xylostella) | mortality at 200 ppm (Myzus persicae [1]) | mortality at 200 ppm (Tetranychus urticae) | pest or weed control at 200 ppm (Aedes aegypti) | percent effect (mortality or growth inhibition) at 200 ppm (Euschistus heros) | mortality at 200 ppm (Bemisia tabaci) | mortality at 24 ppm (Myzus persicae [2]) | percent control (mortality, anti-feeding effect or growth inhibition) at 200 ppm (Spodoptera littoralis [3])

CCn1c(C(F)(F)F)cc2nc(-c3nc(NC(=O)C4CC4)ccc3S(=O)(=O)CC)n(C)c2c1=O [Compound A8, N-[6-[5-ethyl-3-methyl-4-oxo-6-(trifluoromethyl)imidazo[4,5-c]pyridin-2-yl]-5-ethylsulfonyl-2-pyridyl]cyclopropanecarboxamide]
≥ 80%: effect mortality or growth inhibition at 200 ppm (Diabrotica balteata) | mortality at 200 ppm [5] | percent effect (mortality or growth inhibition) at 200 ppm (Plutella xylostella) | mortality at 200 ppm (Myzus persicae [1]) | percent effect (mortality or growth inhibition) at 200 ppm (Euschistus heros) | mortality at 200 ppm (Bemisia tabaci) | percent control (mortality, anti-feeding effect or growth inhibition) at 200 ppm (Spodoptera littoralis [3]) | percent effect (mortality, anti-feeding or growth inhibition) at 12.5 ppm (Spodoptera littoralis [4])

CCS(=O)(=O)c1cc(Cl)c(N)nc1-c1nc2cc(C(F)(F)F)n(C3CC3)c(=O)c2n1C [Compound A43, 2-(6-amino-5-chloro-3-ethylsulfonyl-2-pyridyl)-5-cyclopropyl-3-methyl-6-(trifluoromethyl)imidazo[4,5-c]pyridin-4-one]
≥ 80%: effect mortality or growth inhibition at 200 ppm (Diabrotica balteata) | mortality at 200 ppm [5] | percent effect (mortality or growth inhibition) at 200 ppm (Plutella xylostella) | mortality at 200 ppm (Myzus persicae [1]) | percent effect (mortality or growth inhibition) at 200 ppm (Euschistus heros) | mortality at 200 ppm (Bemisia tabaci) | mortality at 24 ppm (Myzus persicae [2]) | percent control (mortality, anti-feeding effect or growth inhibition) at 200 ppm (Spodoptera littoralis [3]) | percent effect (mortality, anti-feeding or growth inhibition) at 12.5 ppm (Spodoptera littoralis [4])

CCS(=O)(=O)c1cc(C#N)c(N)nc1-c1nc2cc(C(F)(F)F)n(C3CC3)c(=O)c2n1C [Compound A50, 2-(6-amino-5-cyano-3-ethylsulfonyl-2-pyridyl)-5-cyclopropyl-3-methyl-6-(trifluoromethyl)imidazo[4,5-c]pyridin-4-one]
≥ 80%: effect mortality or growth inhibition at 200 ppm (Diabrotica balteata) | mortality at 200 ppm [5] | percent effect (mortality or growth inhibition) at 200 ppm (Plutella xylostella) | mortality at 200 ppm (Myzus persicae [1]) | percent effect (mortality or growth inhibition) at 200 ppm (Euschistus heros) | mortality at 24 ppm (Myzus persicae [2]) | percent control (mortality, anti-feeding effect or growth inhibition) at 200 ppm (Spodoptera littoralis [3]) | percent effect (mortality, anti-feeding or growth inhibition) at 12.5 ppm (Spodoptera littoralis [4])
